# Assay results from the supplement of paper PMC11208160.
# Test: recombinant UMI read abundance after kanamycin selection (control-corrected) (log10(CPM+1)); higher = more efficient recombination; extreme values may be limits of the assay; sequences stand for … in AGTGCAGAGAAAATCGGCCAGTTTTCTCTGCCTGCAGTCCGCATGCCGTGGGACCCCTTGGGTTCTAACCTGTTGCCTAGATTTATGCAGCGGACTGCCTTTCTCCCAAAGTGATAAACCGG…AGGTTGGTTTCACT; site = the 11-nt donor
# Procedure, shortened: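 Pooled Escherichia coli screen of donor and donor-binding-loop pairs for the IS621 bridge recombinase. Each pair sits with a 12-nt UMI on a plasmid carrying a promoterless kanamycin gene. The library was co-electroporated with a target plasmid encoding a fixed target and T7-inducible recombinase, then plated with IPTG (0.07 mM) plus kanamycin, or unselected, each in two replicates. Recombinant UMIs were PCR-amplified across the donor–target junction and sequenced. Counts became CPM, averaged over replicates, scaled by control-derived factors and reported as log10(CPM+1).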
row,Sequence,recombinant UMI read abundance (log10)
1,GTTTGCCCATGGACCGGTTTTCCCGGTAATCCGTATTTGAT (site GTTTGCCCTAT),0.0181
2,GTTTGCGCATGGACCGGTTTTCCCGGTAATCCGTATTTGTC (site GTTTGCGCTGA),1.54
3,TAAACAACATGGACCGGTTTTCCCGGTAATCCGTATTTGTA (site TAAACAACTTA),0.815
4,TAAACCACATGGACCGGTTTTCCCGGTAATCCGTATTTGAT (site TAAACCACTAT),1.3
5,TAAAGTCCATGGACCGGTTTTCCCGGTAATCCGTATTTGCA (site TAAAGTCCTTA),0.00275
6,TAAAGTCCATGGACCGGTTTTCCCGGTAATCCGTATTTGCA (site TAAAGTCCTTC),0.00901
7,TAAAGTCCATGGACCGGTTTTCCCGGTAATCCGTATTTGCA (site TAAAGTCCTTG),1.07
8,TAAAGTCCATGGACCGGTTTTCCCGGTAATCCGTATTTGCA (site TAAAGTCCTTT),0
9,TAAAGTCCATGGACCGGTTTTCCCGGTAATCCGTATTTGTG (site TAAAGTCCTAA),0.00597
10,TAAAGTCCATGGACCGGTTTTCCCGGTAATCCGTATTTGTG (site TAAAGTCCTCA),0.64
11,TAAAGTCCATGGACCGGTTTTCCCGGTAATCCGTATTTGTG (site TAAAGTCCTGA),0
12,TAAAGTCCATGGACCGGTTTTCCCGGTAATCCGTATTTGTG (site TAAAGTCCTTA),0.19
13,TAAATTTCATGGACCGGTTTTCCCGGTAATCCGTATTTGCC (site TAAATTTCTGG),0
14,TAACAATCATGGACCGGTTTTCCCGGTAATCCGTATTTGTC (site TAACAATCTGA),2.03
15,TAACCTCCATGGACCGGTTTTCCCGGTAATCCGTATTTGAT (site TAACCTCCTAT),0
16,TAACGCACATGGACCGGTTTTCCCGGTAATCCGTATTTGTA (site TAACGCACTTA),1.61
17,TAACGTTCATGGACCGGTTTTCCCGGTAATCCGTATTTGCA (site TAACGTTCTTG),1.75
18,TAACTGACATGGACCGGTTTTCCCGGTAATCCGTATTTGAT (site TAACTGACTAT),1.54
19,TAACTGCCATGGACCGGTTTTCCCGGTAATCCGTATTTGTG (site TAACTGCCTCA),0.00877
20,TAACTTACATGGACCGGTTTTCCCGGTAATCCGTATTTGGC (site TAACTTACTGC),1.32
21,TAAGAATCATGGACCGGTTTTCCCGGTAATCCGTATTTGCG (site TAAGAATCTCG),2.9
22,TAAGAATCATGGACCGGTTTTCCCGGTAATCCGTATTTGCG (site TACGAATCTCG),1.95
23,TAAGAATCATGGACCGGTTTTCCCGGTAATCCGTATTTGCG (site TAGGAATCTCG),2.51
24,TAAGAATCATGGACCGGTTTTCCCGGTAATCCGTATTTGCG (site TATGAATCTCG),1.97
25,TAAGACTCATGGACCGGTTTTCCCGGTAATCCGTATTTGTC (site TAAGACTCTGA),2.64

row,Sequence,recombinant UMI read abundance (log10)
1,TAAGCCGCATGGACCGGTTTTCCCGGTAATCCGTATTTGCA (site GGGTTGCCTGA),0
2,TAAGCTGCATGGACCGGTTTTCCCGGTAATCCGTATTTGAG (site TAAGCTGCTCT),1.32
3,TAAGCTGCATGGACCGGTTTTCCCGGTAATCCGTATTTGCC (site TAAGCTGCTGG),1.94
4,TAAGGTACATGGACCGGTTTTCCCGGTAATCCGTATTTGTA (site TAAGGTACTTA),2.09
5,TAAGTTGCATGGACCGGTTTTCCCGGTAATCCGTATTTGTG (site TAAGTTGCTCA),1.4
6,TAATAGTCATGGACCGGTTTTCCCGGTAATCCGTATTTGCG (site TAATAGTCTCG),3.15
7,TAATCACCATGGACCGGTTTTCCCGGTAATCCGTATTTGAG (site TAATCACCTCT),0.0222
8,TAATGACCATGGACCGGTTTTCCCGGTAATCCGTATTTGCC (site TAATGACCTGG),0
9,TAATGACCATGGACCGGTTTTCCCGGTAATCCGTATTTGGG (site TAATGAACTCC),0.00176
10,TAATGACCATGGACCGGTTTTCCCGGTAATCCGTATTTGGG (site TAATGACCTCC),0.00316
11,TAATGACCATGGACCGGTTTTCCCGGTAATCCGTATTTGGG (site TAATGAGCTCC),0.0136
12,TAATGACCATGGACCGGTTTTCCCGGTAATCCGTATTTGGG (site TAATGATCTCC),0.00372
13,TAATGAGCATGGACCGGTTTTCCCGGTAATCCGTATTTGTG (site TAATGAGCTCA),1.16
14,TAATGAGCATGGACCGGTTTTCCCGGTAATCCGTATTTGTG (site TAATGAGCTCC),0.00287
15,TAATGAGCATGGACCGGTTTTCCCGGTAATCCGTATTTGTG (site TAATGAGCTCG),1.54
16,TAATGAGCATGGACCGGTTTTCCCGGTAATCCGTATTTGTG (site TAATGAGCTCT),0.133
17,TAATGTGCATGGACCGGTTTTCCCGGTAATCCGTATTTGGG (site TAATGAGCTCC),0.0156
18,TAATGTGCATGGACCGGTTTTCCCGGTAATCCGTATTTGGG (site TAATGCGCTCC),0.00475
19,TAATGTGCATGGACCGGTTTTCCCGGTAATCCGTATTTGGG (site TAATGGGCTCC),0.00856
20,TAATGTGCATGGACCGGTTTTCCCGGTAATCCGTATTTGGG (site TAATGTGCTCC),0.0867
21,TAATTGACATGGACCGGTTTTCCCGGTAATCCGTATTTGCT (site TAATTGACTAG),2.35
22,TAATTGACATGGACCGGTTTTCCCGGTAATCCGTATTTGCT (site TACTTGACTAG),1.17
23,TAATTGACATGGACCGGTTTTCCCGGTAATCCGTATTTGCT (site TAGTTGACTAG),1.39
24,TAATTGACATGGACCGGTTTTCCCGGTAATCCGTATTTGCT (site TATTTGACTAG),0.698
25,TACAACACATGGACCGGTTTTCCCGGTAATCCGTATTTGTG (site TACAACACTCA),0.148

row,Sequence,recombinant UMI read abundance (log10)
1,TACAATACATGGACCGGTTTTCCCGGTAATCCGTATTTGCA (site TAAAATACTTG),0
2,TACAATACATGGACCGGTTTTCCCGGTAATCCGTATTTGCA (site TACAATACTTG),1.18
3,TACAATACATGGACCGGTTTTCCCGGTAATCCGTATTTGCA (site TAGAATACTTG),0
4,TACAATACATGGACCGGTTTTCCCGGTAATCCGTATTTGCA (site TATAATACTTG),0
5,TACAATCCATGGACCGGTTTTCCCGGTAATCCGTATTTGAG (site TACAATCCTCT),0.531
6,TACAGACCATGGACCGGTTTTCCCGGTAATCCGTATTTGTC (site TACAGACCTGA),0
7,TACAGCGCATGGACCGGTTTTCCCGGTAATCCGTATTTGCG (site TACAGCGCTCG),0.00572
8,TACAGGCCATGGACCGGTTTTCCCGGTAATCCGTATTTGCT (site TACAGGCCTAG),0.00356
9,TACCACCCATGGACCGGTTTTCCCGGTAATCCGTATTTGCT (site TACCACCCTAG),0.83
10,TACCCGCCATGGACCGGTTTTCCCGGTAATCCGTATTTGCG (site TACCCGCCTCG),0.26
11,TACCCTTCATGGACCGGTTTTCCCGGTAATCCGTATTTGGT (site TAACCTTCTAC),0.00354
12,TACCCTTCATGGACCGGTTTTCCCGGTAATCCGTATTTGGT (site TACCCTTCTAC),0.56
13,TACCCTTCATGGACCGGTTTTCCCGGTAATCCGTATTTGGT (site TAGCCTTCTAC),0.0115
14,TACCCTTCATGGACCGGTTTTCCCGGTAATCCGTATTTGGT (site TATCCTTCTAC),0.00909
15,TACCTCTCATGGACCGGTTTTCCCGGTAATCCGTATTTGAC (site TACCTCTCTGT),0.216
16,TACCTGACATGGACCGGTTTTCCCGGTAATCCGTATTTGCT (site TACATGACTAG),0
17,TACCTGACATGGACCGGTTTTCCCGGTAATCCGTATTTGCT (site TACCTGACTAG),0.461
18,TACCTGACATGGACCGGTTTTCCCGGTAATCCGTATTTGCT (site TACGTGACTAG),0
19,TACCTGACATGGACCGGTTTTCCCGGTAATCCGTATTTGCT (site TACTTGACTAG),0
20,TACCTTCCATGGACCGGTTTTCCCGGTAATCCGTATTTGGC (site TACCTTCCTGC),0
21,TACGATCCATGGACCGGTTTTCCCGGTAATCCGTATTTGCT (site TACGATCCTAG),1.96
22,TACGGAGCATGGACCGGTTTTCCCGGTAATCCGTATTTGCC (site AGTCTTACTAA),0
23,TACGGCCCATGGACCGGTTTTCCCGGTAATCCGTATTTGTT (site AACGGCCCTAA),0.0182
24,TACGGCCCATGGACCGGTTTTCCCGGTAATCCGTATTTGTT (site CACGGCCCTAA),0.00844
25,TACGGCCCATGGACCGGTTTTCCCGGTAATCCGTATTTGTT (site GACGGCCCTAA),0.00736
